Three compounds from publication PMC11596392, “Enhanced Antibacterial, Anti-Inflammatory, and Antibiofilm Activities of Tryptophan-Substituted Peptides Derived from Cecropin A-Melittin Hybrid Peptide BP100” (Molecules, 2024) can be followed below.

The subject of test [1] is MDRPA (CCARM 2095) biofilm formation. The class given is cell-based, multidrug-resistant Pseudomonas aeruginosa. As to conditions: overnight 37 °C, crystal violet staining. The text has this: Bacterial biofilms, comprising communities of bacterial cells encased in a matrix of polysaccharides and nucleic acids, present a significant challenge for conventional antibiotics due to the protective nature of this matrix. Biofilms can enhance bacterial resistance to antibiotics by up to 1000-fold compared to planktonic bacteria. To address this issue, there is an urgent need to discover and develop novel alternative therapeutic agents capable of effectively combating biofilm-forming bacteria. […] Our research specifically focused on evaluating the impact of BP100 and its analogs on biofilm formation and eradication using multidrug-resistant Pseudomonas aeruginosa (MDRPA), a common pathogen responsible for biofilm-mediated nosocomial infections. The adhered biomass was quantified using crystal violet staining, and the minimum biofilm inhibitory concentration (MBIC90) was determined as the lowest concentration required to inhibit 90% of biofilm growth relative to the positive control. […] Human cathelicidin LL-37 is well-documented for its potent antibiofilm properties.
The inhibitory activity of the peptides on biofilm formation was evaluated against multidrug-resistant Pseudomonas aeruginosa (MDRPA) (CCARM 2095) using a biofilm inhibition assay to determine the minimal biofilm inhibitory concentration (MBIC). Peptide solutions were serially diluted in sterile water and aliquoted (100 μL) into a 96-well Costar polypropylene plate (Corning Inc., Corning, NY, USA). An equal volume of MDRPA suspension in Mueller–Hinton Broth (MHB), adjusted to 1 × 10^6 CFU/mL, was added to each well, resulting in a final inoculum density of 5 × 10^5 CFU/mL. Following overnight incubation at 37 °C, bacterial growth was quantified by measuring the optical density (OD) at 595 nm. Planktonic cells were then discarded, and the attached biofilms were washed thrice with distilled water. Residual biofilms were stained with 0.1% crystal violet for five minutes, washed to remove non-adherent dye, and subsequently destained using 95% ethanol. The OD at 595 nm was measured again to assess the biofilm mass. Control wells contained untreated bacteria. The MBIC was defined as the lowest peptide concentration that inhibited any residual crystal violet staining or biofilm formation. All assays were conducted in triplicate to ensure reproducibility. This method allows for the quantitative assessment of the peptides’ ability to prevent biofilm formation, a critical virulence factor in many bacterial infections, particularly those caused by multidrug-resistant strains.

The test system of test [2] is preformed MDRPA (CCARM 2095) biofilms. In kind it is cell-based, multidrug-resistant Pseudomonas aeruginosa. To be noted: 24 h treatment. As for the experimental part: While preventing biofilm formation on surfaces is crucial, treating established biofilm infections presents a significant challenge due to the extracellular polymeric substance (EPS) matrix hindering antibiotic penetration and the high cell density within mature biofilms. To address this challenge, we evaluated the ability of BP100 and its analogs to eradicate established MDRPA biofilms over a 24 h period. The minimum biofilm eradication concentration (MBEC90) was determined using crystal violet staining as the lowest concentration that reduced biomass by more than 90%. Among these peptides, BP5, BP6, BP7, BP8, BP9, BP11, and BP13 eradicated preformed MDRPA biofilms by more than 90% at a concentration of 8 μM (Figure 3c,d and Table 3).
The minimal biofilm eradication concentration (MBEC) for peptides against the multidrug-resistant Pseudomonas aeruginosa (MDRPA) (CCARM 2095) strain was assessed using the Calgary Biofilm Device (CBD), supplied by Innovotech, Edmonton, AB, Canada. A bacterial suspension with a density of (1 × 10^6) CFU/mL in (150 µL) of Luria–Bertani (LB) media was dispensed into each well of a 96-well microtiter plate, which was equipped with a peg lid (Innovotech, product code: 19111). This plate was incubated at 37 °C for 24 h with agitation at 110 rpm, promoting biofilm formation on the pegs. Subsequently, the peg lid was washed with phosphate-buffered saline (PBS, 0.01 M) and relocated to a fresh plate containing varying peptide concentrations (200 µL per well). The biofilms were then subjected to these peptides under the same incubation conditions. After another PBS rinse, the peg lid was moved to a recovery plate filled with (200 µL) of LB media per well. To detach the biofilms from the pegs, the recovery plate underwent sonication in a water bath for 10 to 15 min. Finally, the recovery plate was incubated at 37 °C for 24 h with agitation at 110 rpm, allowing any surviving bacteria to proliferate and cause turbidity. The MBEC is defined as the lowest concentration of peptides that inhibited turbidity formation in the recovery plate in comparison to sterility controls. This experiment was conducted in triplicate, and the median value from each trial was recorded.

For a further test, the system named is bacterial strains. As to the kind of experiment: Geometric mean (GM) of MIC values over the bacterial strains. The class given is cell-based. To be noted: over the 11 bacterial strains of Table 2. How it is done: The antibacterial efficacy of the synthesized peptides was evaluated by determining the minimal inhibitory concentrations (MICs) against six standard bacterial strains and five drug-resistant bacterial strains using the Clinical and Laboratory Standards Institute (CLSI) microdilution method. Melittin served as the positive control.
The minimal inhibitory concentrations (MICs) of the peptides against bacterial strains were determined using a modified broth-microdilution method in accordance with the National Committee for Clinical Laboratory Standards (NCCLS) guidelines. Overnight cultures were diluted in cation-adjusted Mueller–Hinton Broth (MHB) to achieve an inoculum density of 2 × 10^6 CFU/mL. A two-fold serial dilution of the peptide solution (100 μL) was introduced into microtiter plates, followed by the addition of 100 μL of bacterial suspension. The plates were then incubated at 37 °C for 24 h to determine the MICs. Wells containing only culture media served as negative controls, while those with added bacteria functioned as positive controls. The MIC, expressed in μM, was defined as the lowest peptide concentration that prevented visible bacterial growth. […]

In a further test the test system is MDRPA (CCARM 2095). In kind it is cell-based, multidrug-resistant Pseudomonas aeruginosa. As to conditions: checkerboard, 37 °C, 24 h. The text has this: Multidrug-resistant pathogens pose a significant challenge to both human and animal health. The steady decline in the discovery of new antibiotics has exacerbated the difficulty in developing effective therapies for infection control. Consequently, there is an urgent need for alternative strategies that can combat pathogens without inducing drug resistance. One such strategy involves the combination of different antimicrobial agents. The effects of antimicrobial peptides (AMPs) combined with conventional antibiotics often surpass those of individual drugs. […] The primary advantage of synergistic combinations lies in their ability to lower the concentration of each antimicrobial agent required for effective antibacterial activity. This approach offers several benefits, including reduced production costs, a decreased risk of adverse side effects, diminished toxicity to mammalian cells, and a lower likelihood of drug resistance development. In light of these potential advantages, we investigated the synergistic effects of BP100 and the five selected analogs in combination with ciprofloxacin against multidrug-resistant Pseudomonas aeruginosa (MDRPA) using a checkerboard synergy assay. Ciprofloxacin, an antibiotic belonging to the fluoroquinolone class, is commonly used to treat various bacterial infections, including urinary tract infections and pneumonia. It exerts a bactericidal effect by inhibiting bacterial DNA gyrase, thereby disrupting DNA replication and transcription […]. The fractional inhibitory concentration index (FICI) results for BP100 and its selected analogs, when paired with ciprofloxacin against MDRPA, are detailed in Table 5. […] Such combinations may offer a valuable approach to enhancing the efficacy of existing antibiotics and potentially mitigating the development of antimicrobial resistance.
The synergistic effects of peptide-antibiotic combinations against methicillin-resistant Staphylococcus aureus (MRSA; CCARM 3089) and multidrug-resistant Pseudomonas aeruginosa (MDRPA; CCARM 2095) were evaluated using the fractional inhibitory concentration index (FICI) method. Antibiotics and peptides were subjected to two-fold serial dilutions, mixed in equal ratios, and combined with a bacterial suspension adjusted to approximately 10^6 CFU/mL. The resulting mixtures were distributed into microplate wells and incubated at 37 °C with orbital shaking at 200 rpm for 24 h. Bacterial growth was monitored by measuring the optical density at 600 nm (OD600). The FICI was calculated using the broth microdilution checkerboard method, defined as the sum of the ratios of the minimum inhibitory concentrations (MICs) of each agent in combination to their individual MICs, according to the following equation: FICI = (MIC of antibiotic in combination/MIC of antibiotic alone) + (MIC of peptide in combination/MIC of peptide alone). The interpretation of FICI values was as follows: FICI ≤ 0.5 indicates synergy; 0.5 < FICI ≤ 1.0 indicates an additive effect; 1.0 < FICI ≤ 4.0 indicates indifference; and FICI > 4.0 indicates antagonism.

Turning to `CC[C@H](C)[C@H](NC(=O)[C@H](CCCCN)NC(=O)[C@H](CCC(=O)O)NC(=O)[C@H](CCCCN)NC(=O)[C@H](CO)NC(=O)[C@H](CCCCN)NC(=O)[C@H](CCCNC(=N)N)NC(=O)[C@H](Cc1ccccc1)NC(=O)[C@H](Cc1ccccc1)NC(=O)[C@H](CC(=O)O)NC(=O)CNC(=O)[C@H](CC(C)C)NC(=O)[C@@H](N)CC(C)C)C(=O)NCC(=O)N[C@@H](CCCCN)C(=O)N[C@@H](CCC(=O)O)C(=O)N[C@@H](Cc1ccccc1)C(=O)N[C@@H](CCCCN)C(=O)N[C@@H](CCCNC(=N)N)C(=O)N[C@H](C(=O)N[C@H](C(=O)N[C@@H](CCC(N)=O)C(=O)N[C@@H](CCCNC(=N)N)C(=O)N[C@H](C(=O)N[C@@H](CCCCN)C(=O)N[C@@H](CC(=O)O)C(=O)N[C@@H](Cc1ccccc1)C(=O)N[C@@H](CC(C)C)C(=O)N[C@@H](CCCNC(=N)N)C(=O)N[C@@H](CC(N)=O)C(=O)N[C@@H](CC(C)C)C(=O)N[C@H](C(=O)N1CCC[C@H]1C(=O)N[C@@H](CCCNC(=N)N)C(=O)N[C@H](C(=O)N[C@@H](CCC(=O)O)C(=O)N[C@@H](CO)C(=O)O)[C@@H](C)O)C(C)C)[C@@H](C)CC)C(C)C)[C@@H](C)CC` [LL-37, reference compound], the MBIC50 in test [1] (50% inhibition) was in the range of 32 to 64 µM. In addition, the MBIC90 in test [1] (90% inhibition) was 64 µM. The compound also came in with an MBEC50 in test [2] (50% eradication) of 32 µM. In test [2] (90% eradication), the MBEC90 was > 64 µM.

For the compound `CC[C@H](C)[C@H](NC(=O)CN)C(=O)NCC(=O)N[C@@H](C)C(=O)N[C@H](C(=O)N[C@@H](CC(C)C)C(=O)N[C@@H](CCCCN)C(=O)N[C@H](C(=O)N[C@@H](CC(C)C)C(=O)N[C@H](C(=O)N[C@H](C(=O)NCC(=O)N[C@@H](CC(C)C)C(=O)N1CCC[C@H]1C(=O)N[C@@H](C)C(=O)N[C@@H](CC(C)C)C(=O)N[C@H](C(=O)N[C@@H](CO)C(=O)N[C@@H](Cc1c[nH]c2ccccc12)C(=O)N[C@H](C(=O)N[C@@H](CCCCN)C(=O)N[C@@H](CCCNC(=N)N)C(=O)N[C@@H](CCCCN)C(=O)N[C@@H](CCCNC(=N)N)C(=O)N[C@@H](CCC(N)=O)C(=O)N[C@@H](CCC(N)=O)C(N)=O)[C@@H](C)CC)[C@@H](C)CC)[C@@H](C)O)[C@@H](C)O)C(C)C)C(C)C` [ME, melittin], the “GM (geometric mean of MIC values)” value with bacterial strains is 24.0 µM.

In the case of `O=C(O)c1cn(C2CC2)c2cc(N3CCNCC3)c(F)cc2c1=O` [ciprofloxacin, reference compound], the “MICB: MIC of ciprofloxacin alone” value in the test on MDRPA (CCARM 2095) amounted to 2048 µg/mL.
